# Experimental data taken from patent US20120225862A1, “HETEROARYL BENZAMIDES, COMPOSITIONS AND METHODS OF USE” (AUCKLAND UNIVSERVICES LIMITED, priority 2009, published 2012).
# Assays:
# [1] = system: RCC4/VHL; assay: XTT IC50 assay, selectivity RCC4 versus RCC4 with VHL-reintroduced; type: cell-based, human; settings: selectivity ratio of XTT IC50 values, RCC4 vs RCC4/VHL
# Description: (§1) RCC4 parental and RCC4 with VHL-reintroduced (RCC4/VHL), SN12C and SN12C-CSCG-VHL shRNA were maintained in DMEM supplemented with 10% FCS.
# (§2) IC50 values for compounds were determined by XTT assay. For 2,3-bis[2-methoxy-4-nitro-5-sulfophenyl]-2H-tetrazolium-5-carboxanilide inner salt (XTT) assays, five thousand cells were plated in 96-well plates. The next day, vehicle or drug was added to each well and incubated for four days. Media was aspirated and phenol red-free medium with 0.3 mg/mL XTT and 2.65 ug/mL N-methyl dibenzopyrazine methyl sulfate was added. This was incubated at 37° C. for 1-2 hours and absorbance was read at 450 nm. IC50 values for each compound were calculated using linear interpolation.
# (§3) For 2,3-bis[2-methoxy-4-nitro-5-sulfophenyl]-2H-tetrazolium-5-carboxanilide (XTT) assays, five thousand cells were plated in 96-well plates. The next day, vehicle (DMSO) or drug was added by serial dilution. Four days later, media were aspirated, XTT solution (0.3 mg/ml of XTT (Sigma), 2.65 mg/ml N-methyl dibenxopyrazine methyl sulfate (Simga) in phenol red-free media) was added, and the plates were incubated at 37° C. for 1-2 hours. Metabolism of XTT was quantified by measuring the absorbance at 450 nm. IC50s were calculated using linear interpolation. For clonogenic survival assays, three hundred cells were plated per 60 mm tissue culture dish. The cells were allowed to attach overnight and then treated with vehicle or drug for 14 days. Colonies were fixed and stained with crystal violet (0.1% crystal violet in 95% ethanol). All conditions were measured in triplicate and each experiment was done in duplicate or triplicate. To determine necrosis, cells were treated with drug for a given time point. Media and cells were collected, centrifugated, and resuspended in 0.4% trypan blue (Invitrogen). Live and dead cells were counted on a hematocytometer.
# [2] = system: RCC4; assay: XTT IC50 / viability assay, RCC4 cells; type: cell-based, human; settings: Homo sapiens, RCC4, 96 h; XTT assay, four days
# Description: as §1, §2, §3
Structure (SMILES),Ratio (RCC4:RCC/VHL) [1],IC50 [2]
"Cc1cc(C)cc(COC(=O)NCc2ccc(C(=O)Nc3cccnc3)cc2)c1 [Compound A, reference compound]",a (“a” reflects a ratio of RCC4/RCC-VHL+ ranging from 1 to 10),> 20 µM
"CC(C)(C)c1ccc(CNCc2ccc(C(=O)Nc3cccnc3)cc2)cc1 [Compound B, reference compound]",a (“a” reflects a ratio of RCC4/RCC-VHL+ ranging from 1 to 10),1 to 20 µM
"Cc1cc(C)cc(CNCc2ccc(C(=O)Nc3cccnc3)cc2)c1 [Compound C, reference compound]",–,> 20 µM
"CC(C)(C)c1ccc(COC(=O)NCc2ccc(C(=O)Nc3cccnc3)cc2)cc1 [Compound D, reference compound]",–,> 20 µM
"Cc1cccc(Nc2nc(-c3ccncc3)cs2)c1 [Compound E, reference compound]",b (“b” reflects from 10 to 100),1 to 20 µM
"O=C(Nc1ccccn1)c1ccc(CNS(=O)(=O)c2ccccc2)cc1 [Example 1, 4-(Phenylsulfonamidomethyl)-N-(pyridin-2-yl)benzamide]",–,> 20 µM
"O=C(Nc1cccnc1)c1ccc(CNS(=O)(=O)c2ccccc2)cc1 [Example 2, 4-(Phenylsulfonamidomethyl)-N-(pyridin-3-yl)benzamide]",a (“a” reflects a ratio of RCC4/RCC-VHL+ ranging from 1 to 10),1 to 20 µM
"O=C(Nc1ccncc1)c1ccc(CNS(=O)(=O)c2ccccc2)cc1 [Example 3, 4-(Phenylsulfonamidomethyl)-N-(pyridin-4-yl)benzamide]",–,> 20 µM
"Cc1ccccc1S(=O)(=O)NCc1ccc(C(=O)Nc2cccnc2)cc1 [Example 10, 4-((2-Methylphenylsulfonamido)methyl)-N-(pyridin-3-yl)benzamide]",a (“a” reflects a ratio of RCC4/RCC-VHL+ ranging from 1 to 10),1 to 20 µM
"O=C(Nc1cccnc1)c1ccc(CNS(=O)(=O)c2ccccc2F)cc1 [Example 11, 4-((2-Fluorophenylsulfonamido)methyl)-N-(pyridin-3-yl)benzamide]",a (“a” reflects a ratio of RCC4/RCC-VHL+ ranging from 1 to 10),1 to 20 µM
"O=C(Nc1cccnc1)c1ccc(CNS(=O)(=O)c2ccccc2Cl)cc1 [Example 12, 4-((2-Chlorophenylsulfonamido)methyl)-N-(pyridin-3-yl)benzamide]",a (“a” reflects a ratio of RCC4/RCC-VHL+ ranging from 1 to 10),1 to 20 µM
"O=C(Nc1cccnc1)c1ccc(CNS(=O)(=O)c2ccccc2Br)cc1 [Example 13, 4-((2-Bromophenylsulfonamido)methyl)-N-(pyridin-3-yl)benzamide]",a (“a” reflects a ratio of RCC4/RCC-VHL+ ranging from 1 to 10),1 to 20 µM
"N#Cc1ccccc1S(=O)(=O)NCc1ccc(C(=O)Nc2cccnc2)cc1 [Example 16, 4-((2-Cyanophenylsulfonamido)methyl)-N-(pyridin-3-yl)benzamide]",a (“a” reflects a ratio of RCC4/RCC-VHL+ ranging from 1 to 10),> 20 µM
"Nc1cccc(S(=O)(=O)NCc2ccc(C(=O)Nc3cccnc3)cc2)c1 [Example 17, 4-((3-Aminophenylsulfonamido)methyl)-N-(pyridin-3-yl)benzamide]",b (“b” reflects from 10 to 100),1 to 20 µM
"Cc1cccc(S(=O)(=O)NCc2ccc(C(=O)Nc3cccnc3)cc2)c1 [Example 19, 4-((3-Methylphenylsulfonamido)methyl)-N-(pyridin-3-yl)benzamide]",b (“b” reflects from 10 to 100),< 1 µM
"O=C(Nc1cccnc1)c1ccc(CNS(=O)(=O)c2cccc(F)c2)cc1 [Example 20, 4-((3-Fluorophenylsulfonamido)methyl)-N-(pyridin-3-yl)benzamide]",b (“b” reflects from 10 to 100),< 1 µM
"O=C(Nc1cccnc1)c1ccc(CNS(=O)(=O)c2cccc(Cl)c2)cc1 [Example 21, 4-((3-Chlorophenylsulfonamido)methyl)-N-(pyridin-3-yl)benzamide]",b (“b” reflects from 10 to 100),< 1 µM

Structure (SMILES),Ratio (RCC4:RCC/VHL) [1],IC50 [2]
"O=C(Nc1cccnc1)c1ccc(CNS(=O)(=O)c2cccc(Br)c2)cc1 [Example 22, 4-((3-Bromophenylsulfonamido)methyl)-N-(pyridin-3-yl)benzamide]",b (“b” reflects from 10 to 100),< 1 µM
"O=C(Nc1cccnc1)c1ccc(CNS(=O)(=O)c2cccc(C(F)(F)F)c2)cc1 [Example 23, N-(Pyridin-3-yl)-4-((3-(trifluoromethyl)phenylsulfonamido)methyl)benzamide]",b (“b” reflects from 10 to 100),< 1 µM
"N#Cc1cccc(S(=O)(=O)NCc2ccc(C(=O)Nc3cccnc3)cc2)c1 [Example 24, 4-((3-Cyanophenylsulfonamido)methyl)-N-(pyridin-3-yl)benzamide]",a (“a” reflects a ratio of RCC4/RCC-VHL+ ranging from 1 to 10),1 to 20 µM
"O=C(Nc1cccnc1)c1ccc(CNS(=O)(=O)c2cccc([N+](=O)[O-])c2)cc1 [Example 25, 4-((3-Nitrophenylsulfonamido)methyl)-N-(pyridin-3-yl)benzamide]",b (“b” reflects from 10 to 100),1 to 20 µM
"O=C(Nc1cccnc1)c1ccc(CNS(=O)(=O)c2cccc(-c3ccccc3)c2)cc1 [Example 26, 4-{[([1,1′-Biphenyl]-3-ylsulfonyl)amino]methyl}-N-(3-pyridinyl)benzamide]",b (“b” reflects from 10 to 100),1 to 20 µM
"O=C(Nc1cccnc1)c1ccc(CNS(=O)(=O)c2cccc(-c3ncccn3)c2)cc1 [Example 27, 4-[({[3-(2-Pyrimidinyl)phenyl]sulfonyl}amino)methyl]-N-(3-pyridinyl)benzamide]",b (“b” reflects from 10 to 100),< 1 µM
"Cn1ccc(-c2cccc(S(=O)(=O)NCc3ccc(C(=O)Nc4cccnc4)cc3)c2)n1 [Example 28, 4-[({[3-(1-Methyl-1H-pyrazol-3-yl)phenyl]sulfonyl}amino)methyl]-N-(3-pyridinyl)benzamide]",c (“c” reflects a ratio of >100),< 1 µM
"Cc1nnc(-c2cccc(S(=O)(=O)NCc3ccc(C(=O)Nc4cccnc4)cc3)c2)o1 [Example 29, 4-[({[3-(5-Methyl-1,3,4-oxadiazol-2-yl)phenyl]sulfonyl}amino)methyl]-N-(3-pyridinyl)benzamide]",b (“b” reflects from 10 to 100),1 to 20 µM
"Cc1nc(-c2cccc(S(=O)(=O)NCc3ccc(C(=O)Nc4cccnc4)cc3)c2)no1 [Example 30, 4-[({[3-(5-Methyl-1,2,4-oxadiazol-3-yl)phenyl]sulfonyl}amino)methyl]-N-(3-pyridinyl)benzamide]",c (“c” reflects a ratio of >100),< 1 µM
"Cc1nc(-c2cccc(S(=O)(=O)NCc3ccc(C(=O)Nc4cccnc4)cc3)c2)cs1 [Example 31, 4-[({[3-(2-Methyl-1,3-thiazol-4-yl)phenyl]sulfonyl}amino)methyl]-N-(3-pyridinyl)benzamide]",b (“b” reflects from 10 to 100),1 to 20 µM
"Nc1ccc(S(=O)(=O)NCc2ccc(C(=O)Nc3cccnc3)cc2)cc1 [Example 32, 4-((4-Aminophenylsulfonamido)methyl)-N-(pyridin-3-yl)benzamide]",b (“b” reflects from 10 to 100),1 to 20 µM
"CC(C)(C)c1ccc(C(=O)NCc2ccc(C(=O)Nc3cccnc3)cc2)cc1 [Example 86, 4-tert-Butyl-N-(4-(pyridin-3-ylcarbamoyl)benzyl)benzamide]",–,> 20 µM
"CC(C)(C)c1ccc(S(=O)(=O)NCc2cccc(C(=O)Nc3cccnc3)c2)cc1 [Example 91, 3-[(4-tert-Butylphenylsulfonamido)methyl]-N-(3-pyridinyl)benzamide]",–,> 20 µM
"O=C(Nc1cccnc1)c1cccc(CNS(=O)(=O)c2ccccc2)c1 [Example 92, 3-[(Phenylsulfonamido)methyl]-N-(3-pyridinyl)benzamide]",–,> 20 µM
"O=C(Nc1ccncc1)c1ccc(CNS(=O)(=O)c2ccc(Br)cc2)cc1 [Example 96, 4-[(4-Bromophenylsulfonamido)methyl]-N-(4-pyridinyl)benzamide]",–,> 20 µM
"O=C(Nc1ccncc1)c1ccc(CNS(=O)(=O)c2ccc(F)cc2)cc1 [Example 97, 4-[(4-Fluorophenylsulfonamido)methyl]-N-(4-pyridinyl)benzamide]",–,> 20 µM
"NCCOCCOCCOCCOCCOCCOCC#Cc1ccc(S(=O)(=O)NCc2ccc(C(=O)Nc3ccncc3)cc2)cc1 [Example 105, 4-[({[4-(21-Amino-4,7,10,13,16,19-hexaoxahenicos-1-yn-1-yl)phenyl]sulfonyl}amino)methyl]-N-(4-pyridinyl)benzamide]",–,> 20 µM
